According to US7091185B2, “Periodic antimicrobial peptides” (Dow Global Technologies Inc., priority 2003, dated 2006):
Where no end group is shown, it is not given here.

B1: FKA FKA FKA FKA FKA FKA FKA FKA FKA FKA FKA FKA FKA FKA FKA FKA FKA FKA FKA FKA FKA (peptide)
chain: FKAFKAFKAFKAFKAFKAFKAFKAFKAFKAFKAFKAFKAFKAFKAFKAFKAFKAFKAFKAFKA
modifications: Periodic Peptide
B2: KFAK KFAK KFAK KFAK KFAK KFAK KFAK KFAK KFAK KFAK KFAK KFAK KFAK KFAK KFAK KFAK KFAK (peptide)
chain: KFAKKFAKKFAKKFAKKFAKKFAKKFAKKFAKKFAKKFAKKFAKKFAKKFAKKFAKKFAKKFAKKFAK
modifications: Periodic Peptide
B3: KFK KFK KFK KFK KFK KFK KFK KFK KFK KFK KFK KFK KFK KFK KFK KFK KFK KFK KFK KFK KFK (peptide)
chain: KFKKFKKFKKFKKFKKFKKFKKFKKFKKFKKFKKFKKFKKFKKFKKFKKFKKFKKFKKFKKFK
modifications: Periodic Peptide

Key:
Staph. aureus ATCC 6538 = test: HMARQ biocidal kill activity; assay type: cell-based; conditions: Staph. aureus ATCC 6538 (gram+)
Experimental: (§1) Biocide efficacy protocols were improved by reducing sample size, organizing the test material into an array format, implementing most probable number (MPN) quantitation and using multi-channel liquid handling equipment. We call the new method “high-throughput microanalysis and rapid quantitation” or “HMARQ.” HMARQ is directly applicable to current industrial efficacy tests such as multi-cycle preservation challenge or time course disinfection tests.
(§2) HMARQ is performed in a high throughput plate, such as 96-well microtiter plates. Typical sample volumes have been reduced down to 200 to 300 μL, but can be reduced further if desired. In these samples, no more than 10% of the total volume will be composed of the biocide and organism solution, and all non-matrix additions are normalized for all samples.
(§3) The sample matrix is first inoculated with the desired concentration of microorganisms. Inoculated sample matrix is then added to the 96-well assay block containing the biocide(s) under study. Each sample block contains biocide treated samples and untreated control samples (lacking biocide). Once the samples are prepared, the entire block of samples is mixed by vortexing until each sample is homogenous. In general, the study starts once mixing is complete, and samples are removed as required for the analysis. When Kill Time testing (rate of biocide activity) is performed, the microorganisms are added after biocide addition to the samples, allowing for rapid mixing and analysis.
(§4) Bacterial concentration (CFU/mL) is determined using the most probable number method (MPN). The contaminated solution is serially diluted until the “no growth” endpoint is reached. The endpoint represents the MPN and is expressed in units of the bacterial concentration. A serial 1:10 dilution will yield a bacterial concentration resolution of 1 log and the log reduction is determined by comparing the concentration of organisms in a treated sample to the concentration of organisms in untreated samples. For example, if a sample requires four 1:10 dilutions before bacterial growth is lost then the MPN for bacterial concentration in the sample is less than or equal to 1×10^4 CFU/mL (1E4). […] This method of enumeration is generally applicable to all non-filamentous microorganisms.
(§5) Media included Tryptic Soy Broth (TSB) for bacteria and Sabouraud Dextrose Broth (SDB) for fungi. These are available commercially and prepared according to the manufacturers instructions. Indicator medium was TSB/R for bacteria and SDB/R for fungi. These were made by addition of 50 μM filter sterilized Resazurin to the sterilized and cooled medium. Tryptic Soy agar plates (TSA) and SDA slants were used to provide inoculant for bacterial and fungal cultures. The indicator dye appeared pink or white when bacterial growth was present.
(§6) Using the HMARQ test described above, periodic peptides were generated and tested for Kill Activity. In this experiment, a broader range of peptidezs were tested for activity. Units are expressed as ppm (μg/mL) needed for 3.5 log kill at 15 min or 24 hour and the results are shown below.

P. aeruginosa ATCC 15442 = test: HMARQ biocidal kill activity; assay type: cell-based; conditions: P. aeruginosa ATCC 15442 (gram−)
Experimental: as §1, §2, §3, §4, §5, §6

Red blood cell toxicity = assay type: cell-based; conditions: red blood cells (RBC); RBCs; concentration required for 50% toxicity; read-out: TX50
Red blood cells (RBC) = test: Red blood cell toxicity; assay type: cell-based
C. albicans 10231 = assay type: cell-based; conditions: 10231
Experimental: (§7) The MIC and IC50 values were determined by a broth microdilution method according to guidelines of the National Committee for Clinical Laboratory Standard as follows: In 96-well tissue culture plates, a fixed volume of bacterial suspension in 2× broth (as defined below) was added to the mixtures or individual compounds dispensed at concentrations varying from 1,000 to 1 μg/ml derived from serial two-fold dilutions in sterile water. The bacteria tested were P. aeruginosa American Type Culture Collection Number (ATCC) 10145, E. coli ATCC 2592, and S. aureus (methicillin reseistant) ATTC 33591.
(§8) The plates were incubated overnight, and the relative percent growth determined by optical density at 620 nm (OD620) using a TITERTEK MULTISKAN PLUS™. […] IC50 values were calculated using a sigmoidal curve fitting software program (GRAPHPAD,™ ISI Software,™ San Diego, Calif.). All samples were tested in duplicate and each assay was repeated at least twice. In the following table, KFAK is the repeat unit and multimers of KFAK were tested. IC50 and MIC are reported in μg/ml.
(§9) Because the antibacterial activity of the periodic peptides was so promising, further experiments were performed to determine if the periodic peptides also had antifungal activity. The experimental design was similar to that above, with accommodation made for fungal growth requirements, including the use of Sabouraud Dextrose Broth (SDB) and Sabouraud Dextrose Agar (SDA) slants.

Cr. Neoformans 32045 = assay type: cell-based
Experimental: as §7, §8, §9

E. coli ATCC 2592 = conditions: ATCC 2592
Experimental: (§10) The bacteria tested were P. aeruginosa American Type Culture Collection Number (ATCC) 10145, E. coli ATCC 2592, and S. aureus (methicillin reseistant) ATTC 33591.
(§11) All experiments were compared to bacterial growth under optimal growth conditions (37° C., pH 7.0, absence of additional salt, growth media—referred to as standard growth conditions). In each plate, no growth control (media alone), positive growth control (bacteria with no test sample), positive antimicrobial controls (agents with known antimicrobial activity) and test compounds were tested.
(§12) The plates were incubated overnight, and the relative percent growth determined by optical density at 620 nm (OD620) using a […] […] PLUS™. […] All samples were tested in duplicate and each assay was repeated at least twice. […] IC50 and MIC are reported in μg/ml.

P. aeruginosa ATCC 10145 = conditions: ATCC 10145
Experimental: as §10, §11, §12

[1] = test system: S. aureus (methicillin resistant) ATCC 33591; conditions: ATCC 33591
Experimental: as §10, §11, §12

Molecule | ppm needed for 3.5 log kill at 15 min (Staph. aureus ATCC 6538) [ppm] | ppm needed for 3.5 log kill at 24 hr (Staph. aureus ATCC 6538) [ppm] | ppm needed for 3.5 log kill at 15 min (P. aeruginosa ATCC 15442) [ppm] | ppm needed for 3.5 log kill at 24 hr (P. aeruginosa ATCC 15442) [ppm] | further results
FKA FKA FKA FKA FKA FKA FKA FKA FKA FKA FKA FKA FKA FKA FKA FKA FKA (FKAFKAFKAFKAFKAFKAFKAFKAFKAFKAFKAFKAFKAFKAFKAFKAFKA; Periodic Peptide) [FKA(17)] | 4 | 8 | 16 | 16 | 
FKLRAKIKVRLRAKIKL [D4E1, FKLRAKIKVRLRAKIKL, reference compound] |  |  |  |  | HC50 at 24 h (Red blood cell toxicity): 134 µg/mL; % kill at 250 μg/ml (Red blood cells (RBC)): 77.2%; IC50 (C. albicans 10231): 70.6 mg/L; MIC (C. albicans 10231): 80 to 125 mg/L; IC50 (Cr. Neoformans 32045): 1.8 mg/L; MIC (Cr. Neoformans 32045): 8 to 16 mg/L; IC50 (E. coli ATCC 2592): 3.3 mg/L; MIC (E. coli ATCC 2592): 8 to 16 mg/L; IC50 (P. aeruginosa ATCC 10145): 6.2 mg/L; MIC (P. aeruginosa ATCC 10145): 8 to 16 mg/L; IC50 [1]: 6.3 mg/L; MIC [1]: 32 to 62 mg/L
H-KFAKKFAKKAAKKAAK-OH [PBF16b, KFAKKFAKKAAKKAAK, reference compound] |  |  |  |  | IC50 (P. aeruginosa ATCC 10145): >250 mg/L; MIC (P. aeruginosa ATCC 10145): >250 mg/L
H-KFAKKFAKKFAKKAAK-OH [PBF16a, KFAKKFAKKFAKKAAK, reference compound] |  |  |  |  | IC50 (P. aeruginosa ATCC 10145): >250 mg/L; MIC (P. aeruginosa ATCC 10145): >250 mg/L
KFAKKAAKKFAKKAAK [PBF16c, KFAKKAAKKFAKKAAK, reference compound] |  |  |  |  | IC50 (P. aeruginosa ATCC 10145): >250 mg/L; MIC (P. aeruginosa ATCC 10145): >250 mg/L
KFK KFK KFK KFK KFK KFK KFK KFK KFK KFK KFK KFK (KFKKFKKFKKFKKFKKFKKFKKFKKFKKFKKFKKFK; Periodic Peptide) [KFK(12)] | >500 | 250 | 4 | 8 | 
KFK KFK KFK KFK KFK KFK KFK KFK KFK KFK KFK KFK KFK KFK KFK KFK (KFKKFKKFKKFKKFKKFKKFKKFKKFKKFKKFKKFKKFKKFKKFKKFK; Periodic Peptide) [KFK(16)] | >500 | 16 | 16 | 31 | 
KGK KGK KGK KGK KGK KGK KGK KGK KGK KGK KGK (KGKKGKKGKKGKKGKKGKKGKKGKKGKKGKKGK; Periodic Peptide) [KGK(11)] | >500 | 8 | 8 | 8 | 
KGK KGK KGK KGK KGK KGK KGK KGK KGK KGK KGK KGK KGK KGK KGK (KGKKGKKGKKGKKGKKGKKGKKGKKGKKGKKGKKGKKGKKGKKGK; Periodic Peptide) [KGK(15)] | 125 | 62 | 4 | 16 | 
KTK KTK KTK KTK KTK KTK KTK (KTKKTKKTKKTKKTKKTKKTK; Periodic Peptide) [KTK(7)] | 250 | 8 | 31 | 31 | 
LK LK LK LK LK (LKLKLKLKLK; Periodic Peptide) [LK(5)] | >500 | 31 | 62 | 62 | 
LK LK LK LK LK LK LK LK LK LK LK LK LK LK LK LK LK LK (LKLKLKLKLKLKLKLKLKLKLKLKLKLKLKLKLKLK; Periodic Peptide) [LK(18)] | 8 | 16 | 16 | 31 | 
LK LK LK LK LK LK LK LK LK LK LK LK LK LK LK LK LK LK LK LK LK LK LK LK (LKLKLKLKLKLKLKLKLKLKLKLKLKLKLKLKLKLKLKLKLKLKLKLK; Periodic Peptide) [LK(24)] | >500 | >500 | 16 | 63 | 
B1 | 4 | 125 | 8 | 16 | 
B2 | 250 | 500 | 16 | 250 | 
B3 | >500 | 250 | 31 | 63 | 
